Our source for the TGI and GI50 values is PubChem BioAssay (NCI).

Some test systems named below: UACC-257 melanoma; SN12C renal; SF-268 CNS; MDA-MB-231 breast; UACC-62 melanoma; HCC-2998 colon; MALME-3M melanoma; NCI-H460 lung; EKVX NSCLC; SNB-75 CNS.
Experiment in all cases: growth of human tumour cells (NCI), 48 h

Values joined by “and” are separate entries in the source; they are usually repeats but may differ in a detail not shown here. Equal entries are not always repeated.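 These data come from cells grown in 96-well plates and exposed to compound for 48 hours at five concentrations. Here, GI50 denotes the concentration required for 50% inhibition of growth. At the TGI there is no net growth.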

`CCOC(=O)Nc1sc2c(c1C#N)CCCC2`: the TGI in the test with UACC-257 melanoma, in the test with SN12C renal, in the test on SF-268 CNS, in the test with MDA-MB-231 breast, with UACC-62 melanoma and in the test with HCC-2998 colon was more than 100 µM in each case. Besides, the TGI in the test on MALME-3M melanoma, in the test with NCI-H460 lung and in the test on EKVX NSCLC was more than 100 µM in each case.
With `CC1CN(C)c2ccccc2N=C1NN` (centres undefined), the TGI in the test on UACC-257 melanoma, with SN12C renal, in the test on SF-268 CNS, with MDA-MB-231 breast, with UACC-62 melanoma and with MALME-3M melanoma was more than 100 µM each time. Further, the TGI in the test with NCI-H460 lung and in the test with EKVX NSCLC was more than 100 µM each time.
With `CC(=O)N1C(C(=O)NC2CCCCC2)CSC1c1ccccc1` (centres undefined), the TGI in the test on UACC-257 melanoma, in the test on SN12C renal, with SNB-75 CNS, with SF-268 CNS, in the test on UACC-62 melanoma and in the test on HCC-2998 colon was more than 100 µM throughout. The TGI with MALME-3M melanoma, in the test on NCI-H460 lung and in the test on EKVX NSCLC was more than 100 µM each time.
As for `Cc1ccccc1C(=N)c1ccccc1Cc1cccc2ccccc12`, the TGI in the test on UACC-257 melanoma was more than 100 µM; in the test on SN12C renal, 39.5 µM; in the test with SF-268 CNS it was 68.2 µM; in the test with MDA-MB-231 breast it was more than 100 µM; in the test on UACC-62 melanoma, 38.6 µM; in the test with HCC-2998 colon, 36.7 µM. Besides, the TGI is 27.3 µM in the test with MALME-3M melanoma, 38.6 µM in the test with NCI-H460 lung and more than 100 µM in the test with EKVX NSCLC.
Take `c1ccc2c3[nH]c(c2c1)=Nc1ccc(cc1)-c1nc2cc(ccc2o1)N=c1[nH]c(c2ccccc12)=Nc1ccc2nc(oc2c1)-c1ccc(cc1)N=3`: the TGI with UACC-257 melanoma, in the test with SN12C renal, with SF-268 CNS, with UACC-62 melanoma, in the test with HCC-2998 colon and with NCI-H460 lung was more than 100 µM each time. In the test with EKVX NSCLC, the TGI was more than 100 µM.
As for `COC(=O)[C@@H](O)[C@](O)(CCC(C)C)C(=O)O[C@@H]1C(OC)=C[C@]23CCCN2CCc2cc4c(cc2[C@H]13)OCO4`, the TGI in the test on UACC-257 melanoma came to 6.06 µM; in the test on SN12C renal, 10.3 µM; in the test with SNB-75 CNS, 14.1 µM; in the test with SF-268 CNS it was 3.37 µM; in the test on UACC-62 melanoma it was 29.4 µM; in the test on HCC-2998 colon, 2.32 µM. Further, the figures for the TGI with MALME-3M melanoma, in the test on NCI-H460 lung and in the test on EKVX NSCLC were 1.94 µM, 1.7 µM and 6.09 µM, respectively.
Take `O=C(OCc1ccccc1)N1CCNCCN(C(=O)OCc2ccccc2)CCNCC1`: the TGI with UACC-257 melanoma is 46.3 µM; with SN12C renal, more than 100 µM; in the test on SNB-75 CNS, 85.2 µM; in the test on UACC-62 melanoma it was 70.3 µM; in the test with NCI-H460 lung it was 49.4 µM; with EKVX NSCLC it was more than 100 µM.
Consider `COc1ccc(/C=c2\sc3n(c2=O)CCN=3)cc1`, for which the TGI with UACC-257 melanoma, in the test on SN12C renal, in the test on SNB-75 CNS, with UACC-62 melanoma, in the test on HCC-2998 colon and in the test with MALME-3M melanoma was more than 100 µM in each case. The TGI in the test on NCI-H460 lung and in the test on EKVX NSCLC was more than 100 µM throughout.
Take `Cc1ccc(NC(=O)CC2Sc3ccccc3NC2=O)cc1C` (centres undefined): the TGI with UACC-257 melanoma, with SN12C renal, in the test with SNB-75 CNS, in the test on SF-268 CNS, in the test with UACC-62 melanoma and in the test on HCC-2998 colon was more than 100 µM in each case. For the same molecule, the TGI in the test with MALME-3M melanoma, in the test with NCI-H460 lung and with EKVX NSCLC was more than 100 µM each time.
Consider `CCCCOC(=O)Nc1ccc(S(=O)(=O)Nc2ccccc2Cl)cc1`, for which the TGI stood at 98.4 µM in the test on UACC-257 melanoma; 48.8 µM in the test with SN12C renal; 36.5 µM in the test with SF-268 CNS; 42 µM in the test on MDA-MB-231 breast; 32.7 µM with UACC-62 melanoma; 27.5 µM with HCC-2998 colon. The TGI in the test with MALME-3M melanoma worked out at 52.5 µM; with NCI-H460 lung, 40.1 µM; with EKVX NSCLC, 57 µM.
Turning to `O=c1[nH]c(=S)[nH]c2c1C(c1ccc([N+](=O)[O-])cc1)c1c([nH]c(=S)[nH]c1=O)O2`, the TGI in the test with UACC-257 melanoma, with SN12C renal, with MDA-MB-231 breast, in the test on UACC-62 melanoma, with NCI-H460 lung and in the test on EKVX NSCLC was more than 100 µM each time.
Regarding `COc1ccc2[nH]cc(/C=C(/C)c3ccncc3)c2c1`, the GI50 in the test on UACC-257 melanoma was 8.36 µM; with SN12C renal it was 7.58 µM; with SNB-75 CNS, 4.93 µM; with MALME-3M melanoma, 3.14 µM. Also, the TGI is 32.8 µM and 26.4 µM with UACC-257 melanoma; more than 100 µM in the test on SN12C renal; 29.5 µM and 7.19 µM with SNB-75 CNS; more than 100 µM in the test with SF-268 CNS; 29.8 µM and 52.9 µM in the test with UACC-62 melanoma; 95.3 µM in the test with HCC-2998 colon. The TGI in the test on MALME-3M melanoma is 21.9 µM; in the test on NCI-H460 lung it was 12.5 µM and 22.4 µM; in the test on EKVX NSCLC it was more than 100 µM.
Turning to `CC1=C(Cl)C=CP(=O)(Oc2ccccc2)C1` (centres undefined), the TGI with UACC-257 melanoma, with SF-268 CNS, in the test with UACC-62 melanoma, in the test on HCC-2998 colon, in the test on MALME-3M melanoma and with NCI-H460 lung was more than 100 µM in each case. The molecule also displayed a TGI in the test with EKVX NSCLC of more than 100 µM.
Turning to `Nc1c(S(=O)(=O)O)cc2cc(S(=O)(=O)O)ccc2c1N=Nc1ccc(-c2ccc(N=Nc3c(N)c(S(=O)(=O)O)cc4cc(S(=O)(=O)O)ccc34)c(S(=O)(=O)O)c2)cc1`, the TGI in the test with UACC-257 melanoma, in the test on SN12C renal, in the test with SNB-75 CNS, with SF-268 CNS, in the test on UACC-62 melanoma and in the test with HCC-2998 colon was more than 100 µM in each case. The TGI in the test on MALME-3M melanoma is more than 100 µM; with NCI-H460 lung, more than 31.6 µM; with EKVX NSCLC, more than 100 µM.
With `N#C/C(=C1/Sc2c(nc[nH]c2=O)N1c1ccccc1)c1nc2ccccc2[nH]1`, the TGI with UACC-257 melanoma, in the test on SN12C renal, in the test on SNB-75 CNS, in the test with SF-268 CNS, in the test on UACC-62 melanoma and with HCC-2998 colon was more than 100 µM throughout. Further, the TGI in the test on MALME-3M melanoma, in the test on NCI-H460 lung and with EKVX NSCLC was more than 100 µM in each case.
Consider `O=C1c2cc3c(cc2-c2c1c1ccc(F)cc1c(=O)n2C[C@H](O)[C@@H](O)[C@H](O)CO)OCO3`, for which the GI50 was 0.325 µM in the test on MDA-MB-231 breast; 0.025 µM in the test on UACC-62 melanoma; 0.14 µM in the test with HCC-2998 colon; 0.185 µM in the test with MALME-3M melanoma; 0.308 µM in the test with EKVX NSCLC. Moreover, the TGI was determined as 0.984 µM in the test with MDA-MB-231 breast; 0.123 µM with UACC-62 melanoma; 0.38 µM in the test with HCC-2998 colon; 0.565 µM in the test on MALME-3M melanoma; 3.05 µM in the test with EKVX NSCLC.
Turning to `O=C(N/N=C/c1ccc(Cl)cc1)c1c(Cl)c(Cl)c(Cl)c(Cl)c1-c1nc2ccccc2[nH]1`, the TGI in the test with SN12C renal, with SNB-75 CNS, with SF-268 CNS, in the test on UACC-62 melanoma, with HCC-2998 colon and in the test on MALME-3M melanoma was more than 100 µM each time. Besides, the TGI with NCI-H460 lung and with EKVX NSCLC was more than 100 µM in each case.
For `CC(=O)Nn1c(=S)[nH]c2ccccc21`, the TGI with UACC-257 melanoma, in the test on SN12C renal, in the test with SF-268 CNS, in the test with MDA-MB-231 breast, in the test with UACC-62 melanoma and with HCC-2998 colon was more than 100 µM throughout. The TGI with MALME-3M melanoma, with NCI-H460 lung and in the test on EKVX NSCLC was more than 100 µM in each case.
Consider `CC1(C)O[C@H]2OC(CO[Si](C)(C)C(C)(C)C)C(N=[N+]=[N-])[C@H]2O1` (some centres undefined), for which the TGI in the test with UACC-257 melanoma is 35.5 µM; with SN12C renal, 36.2 µM; in the test with SNB-75 CNS it was 59.3 µM; with SF-268 CNS, 41.3 µM; in the test with UACC-62 melanoma, 52.6 µM; with HCC-2998 colon, 32.2 µM. The TGI in the test on MALME-3M melanoma is 31.7 µM; with NCI-H460 lung, 43.7 µM; with EKVX NSCLC, 39.3 µM.
In the case of `CCCCCCCC/C=C\CCCCCCCCCCCC(=O)O`, the TGI in the test with UACC-257 melanoma was more than 125 µM; in the test on SN12C renal, more than 98 µM; with SNB-75 CNS it was 113 µM; in the test with SF-268 CNS, more than 125 µM; in the test on UACC-62 melanoma, 102 µM; with HCC-2998 colon, more than 85.8 µM. In addition, the TGI in the test with MALME-3M melanoma was more than 125 µM; in the test with NCI-H460 lung it was 34.9 µM; in the test on EKVX NSCLC, 92.8 µM.
Regarding `Nc1nc(SCCC/C=C/I)nc2c1ncn2C1OC(COP(=O)(O)O)C(O)C1O` (centres undefined), the TGI in the test on UACC-257 melanoma, in the test on SN12C renal, in the test with SNB-75 CNS, with SF-268 CNS, in the test on UACC-62 melanoma and in the test with HCC-2998 colon was more than 100 µM throughout. Moreover, the TGI with MALME-3M melanoma, in the test on NCI-H460 lung and in the test on EKVX NSCLC was more than 100 µM throughout.
In the case of `CC1(C(=O)O)CCC2(C)CCC3(C)C(=CC(=O)C4C5(C)CCC(O)C(C)(C)C5CCC43C)C2C1` (centres undefined), the TGI in the test with UACC-257 melanoma is more than 100 µM; in the test on SN12C renal, more than 100 µM; in the test on SNB-75 CNS, more than 100 µM; in the test on SF-268 CNS, 67.4 µM; in the test on UACC-62 melanoma, 42.5 µM; in the test on HCC-2998 colon, 87.3 µM. Further, the TGI with MALME-3M melanoma and in the test with EKVX NSCLC was more than 100 µM each time.
